# Assay results: patent publication US20260365628A1, “SUBSTITUTED 3,4-DIHYDROQUINOLINONE INHIBITORS OF TSHR” (Septerna, Inc., priority 2022, published 2026)
# Target: T1, hTSHR (Homo sapiens, UniProt P16473)
# T1 construct: expressed in transfected cells
# Assay: hTSHR TR-FRET cAMP Assay (inhibition of M22-stimulated cAMP production)
# Assay type: cell-based
# Settings: Expi293F Inducible cells stably expressing hTSHR; cAMP HTRF; stimulated with EC80 of anti-TSHR antibody M22; 15 min compound preincubation, 30 min at 37° C.; read-out: Activity (IC50 bins)
# In short: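 Readout was a cAMP HTRF ratio of 655/620 nm after lysis, scaled between the EC80 M22 signal (0% inhibition) and no-agonist vehicle (100%). Frozen induced Expi293F-hTSHR cells saw test compounds (0.5% DMSO) for 15 min at 37 °C before 30 min of M22 stimulation at EC80.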
# T1 sequence (P16473 21-764): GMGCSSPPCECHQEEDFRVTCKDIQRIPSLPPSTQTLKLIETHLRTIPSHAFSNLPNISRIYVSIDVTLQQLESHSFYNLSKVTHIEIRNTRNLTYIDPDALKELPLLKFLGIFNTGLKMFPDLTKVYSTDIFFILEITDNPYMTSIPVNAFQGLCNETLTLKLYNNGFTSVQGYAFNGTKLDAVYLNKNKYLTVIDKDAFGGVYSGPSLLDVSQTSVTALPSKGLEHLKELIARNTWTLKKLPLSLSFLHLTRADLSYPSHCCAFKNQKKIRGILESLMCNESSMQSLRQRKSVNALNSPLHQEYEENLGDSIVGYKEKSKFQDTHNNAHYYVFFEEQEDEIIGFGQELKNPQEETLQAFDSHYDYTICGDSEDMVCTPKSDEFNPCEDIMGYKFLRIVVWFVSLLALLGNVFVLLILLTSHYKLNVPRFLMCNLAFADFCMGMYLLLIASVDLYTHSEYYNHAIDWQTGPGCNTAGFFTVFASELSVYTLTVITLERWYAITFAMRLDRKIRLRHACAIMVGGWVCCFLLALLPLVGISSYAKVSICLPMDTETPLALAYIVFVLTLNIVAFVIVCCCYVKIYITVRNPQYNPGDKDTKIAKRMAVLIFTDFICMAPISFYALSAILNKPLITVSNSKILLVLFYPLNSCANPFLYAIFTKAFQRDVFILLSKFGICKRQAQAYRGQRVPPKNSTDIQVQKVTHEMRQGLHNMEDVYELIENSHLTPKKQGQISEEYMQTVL
row,Structure (SMILES),IC50
1,"Cc1ccc(C#N)c(CN2C(=O)CCc3cc(NC(=O)NC(C)(C)C)ccc32)c1 [Example 266, 3-tert-butyl-1-{1-[(2-cyano-5-methylphenyl)methyl]-2-oxo-3,4-dihydroquinolin-6-yl}urea]",> 1 µM
2,"C[C@@H]1Oc2cc(NC(=O)NC(C)(C)C)ccc2N([C@@H](C)c2ccccc2)C1=O [Example 268, 1-(tert-butyl)-3-((S)-2-methyl-3-oxo-4-((S)-1-phenylethyl)-3,4-dihydro-2H-benzo[b][1,4]oxazin-7-yl)urea]",0.1 to 1 µM
3,"CC(C)(C)NC(=O)Nc1cc2c(cc1C#N)N(Cc1ccccc1)C(=O)CC2 [Example 270, 1-(1-benzyl-7-cyano-2-oxo-3,4-dihydroquinolin-6-yl)-3-tert-butylurea]",> 1 µM
4,"CC(c1cccc(C(F)(F)F)c1)N1C(=O)N(C)Cc2cc(NC(=O)NC(C)(C)C)ccc21 (centres unmarked) [Example 271, 1-(tert-butyl)-3-(3-methyl-2-oxo-1-(1-(3-(trifluoromethyl)phenyl)ethyl)-1,2,3,4-tetrahydroquinazolin-6-yl)urea]",> 1 µM
5,"Cc1nc2cc(NC(=O)NC(C)(C)C)ccc2n(Cc2ccccc2)c1=O [Example 272, 1-(1-benzyl-3-methyl-2-oxo-1,2-dihydroquinoxalin-6-yl)-3-(tert-butyl)urea]",> 1 µM
6,"Cc1nc2cc(NC(=O)NC(C)(C)C)ccc2n(Cc2cccc(Cl)c2)c1=O [Example 273, 3-tert-butyl-1-{1-[(3-chlorophenyl)methyl]-3-methyl-2-oxoquinoxalin-6-yl}urea]",0.1 to 1 µM
7,"CC(C)(C)NC(=O)Nc1ccc2c(n1)CCC(=O)N2Cc1cccc(C(F)(F)F)c1 [Example 274, 1-(tert-butyl)-3-(6-oxo-5-(3-(trifluoromethyl)benzyl)-5,6,7,8-tetrahydro-1,5-naphthyridin-2-yl)urea]",0.1 to 1 µM
8,"CC(C)(C)NC(=O)Nc1ccc2c(c1)C[C@H](CC#N)C(=O)N2Cc1ccccc1 [Example 275, (R)-1-(1-benzyl-3-(cyanomethyl)-2-oxo-1,2,3,4-tetrahydroquinolin-6-yl)-3-(tert-butyl)urea]",> 1 µM
9,"CC(C)(C)NC(=O)Nc1ccc2c(c1)C[C@@H](CC#N)C(=O)N2Cc1ccccc1 [Example 276, (S)-1-(1-benzyl-3-(cyanomethyl)-2-oxo-1,2,3,4-tetrahydroquinolin-6-yl)-3-(tert-butyl)urea]",> 1 µM

# Results, then the molecule that gave them:
row,IC50,Structure (SMILES)
1,0.1 to 1 µM,"C[C@H]1Oc2cc(NC(=O)NC3(C(F)(F)F)COC3)ccc2N([C@@H](C)c2ccccc2)C1=O [Example 263, 1-((R)-2-methyl-3-oxo-4-((S)-1-phen-ylethyl)-3,4-dihydro-2H-benzo[b][1,4]oxazin-7-yl)-3-(3-(trifluoromethyl)-oxetan-3-yl)urea]"
2,0.1 to 1 µM,"C[C@H]1Oc2cc(NC(=O)NC3(C(F)(F)F)CC(F)(F)C3)ccc2N([C@@H](C)c2ccccc2)C1=O [Example 264, 1-(3,3-difluoro-1-(trifluoromethyl)-cyclobutyl)-3-((R)-2-methyl-3-oxo-4-((S)-1-phenylethyl)-3,4-dihydro-2H-benzo[b][1,4]oxazin-7-yl)urea]"
3,0.1 to 1 µM,"C[C@H]1Oc2cc(NC(=O)NC3(C)CCOCC3)ccc2N([C@@H](C)c2ccccc2)C1=O [Example 265, 1-((R)-2-methyl-3-oxo-4-((S)-1-phen-ylethyl)-3,4-dihydro-2H-benzo[b][1,4]oxazin-7-yl)-3-(4-methyltetrahydro-2H-pyran-4-yl)urea]"
4,0.1 to 1 µM,"CC(C)(C)NC(=O)Nc1ccc2c(c1Cl)CCC(=O)N2Cc1ccccc1 [Example 267, 1-(1-benzyl-5-chloro-2-oxo-1,2,3,4-tetrahydroquinolin-6-yl)-3-(tert-butyl)urea]"
5,< 0.1 µM,"C[C@H]1Oc2cc(NC(=O)NC(C)(C)C)ccc2N([C@@H](C)c2ccccc2)C1=O [Example 269, 1-(tert-butyl)-3-((R)-2-methyl-3-oxo-4-((S)-1-phenylethyl)-3,4-dihydro-2H-benzo[b][1,4]oxazin-7-yl)urea]"
